Entries after “also recorded” stand apart in the source; their conditions may differ.
Experiments:
Format in all cases: cell-based
A549 = assay: Drug treatment on cancer cell lines, cell counting; conditions: for cell growth: KRAS mutant NSCLC A549
Description: (§1) DMSO was used for control.

CCCL-18 = assay: Drug treatment on cancer cell lines, cell counting; conditions: KRAS mutant colon cancer CCCL-18; dose series
Description: as §1

DU145 = assay: Drug treatment on cancer cell lines, cell counting; conditions: RB1 mutated prostate cancer
Description: as §1

H1417 = assay: Drug treatment on cancer cell lines, cell counting; conditions: RB1 mutant SCLC
Description: as §1

H209 = assay: Drug treatment on cancer cell lines, cell counting; conditions: RB1 mutant SCLC
Description: as §1

H2228 = assay: Drug treatment on cancer cell lines, cell counting; conditions: NSCLC with EML4-ALK fusion
Description: as §1

H3122 = assay: Drug treatment on cancer cell lines, cell counting; conditions: NSCLC with EML4-ALK fusion
Description: as §1

HCT116 = assay: Drug treatment on cancer cell lines, cell counting; conditions: for cell growth: KRAS mutant colon cancer HCT116, dose series
Description: as §1

HELA = assay: Drug treatment on cancer cell lines, cell counting; conditions: cervical cancer with HPV infection
Description: as §1

M21 = assay: Drug treatment on cancer cell lines, cell counting; conditions: BRAF mutated melanoma
Description: as §1

MCF7 = assay: Drug treatment on cancer cell lines, cell counting; conditions: PIK3CA mutant breast cancer
Description: as §1

NCI-H1299 = assay: Drug treatment on cancer cell lines, cell counting; conditions: NRAS mutant large cell lung cancer
Description: as §1

OCM1 = assay: Drug treatment on cancer cell lines, cell counting; conditions: BRAF mutant melanoma
Description: as §1

SKN-BE(2) = assay: Drug treatment on cancer cell lines, cell counting; conditions: neuroblastoma
Description: as §1

Saos2 = assay: Drug treatment on cancer cell lines, cell counting; conditions: for cell growth: RB1 mutated osteosarcoma
Description: as §1

U2OS = assay: Drug treatment on cancer cell lines, cell counting; conditions: RB1 wild type osteosarcoma
Description: as §1

[1] = tested on: RB1 mutated retinoblastoma; assay: RXRG ligands on retinoblastoma cell growth; conditions: for retinoblastoma cell growth: in vitro
Method: Colon, lung, pancreatic cancer, retinoblastoma and other cell lines were cultured in culture medium consisting of IMDM (Medium Lab, MSKCC, NY) with 10% FBS (SH3008803, HyClone, Thermo Scientific), 2 mM glutamine (Invitrogen), 55 μM beta-mercaptoethanol (Invitrogen), 1% Penicillin/streptomycin (Invitrogen), and 2.5 μg/ml Plasmocin (Invivogen), at 37° C. in a humidified incubator with 5% CO2. Melanoma cell lines were culture in RPMI with above additives.
Colon, lung, pancreatic, breast, prostate cancer cell lines and other cancer cell lines were cultured in 10 cm dishes or 24 well plates with complete IMDM or RPMI (for melanoma) with 30-50% confluence. […] DMSO was used for control. After 3-6 days treatment, cells were collected and counted with trypan blue. Dose-effectiveness curves were generated with series dilution of compounds in medium for treatment of cells.

C918 = assay: Drug treatment on cancer cell lines, cell counting; conditions: melanoma
Description: as §1

CCCL13 = assay: Drug treatment on cancer cell lines, cell counting; conditions: KRAS mutant colon cancer
Description: as §1

H1650 = assay: Drug treatment on cancer cell lines, cell counting; conditions: EGFR mutated lung cancer
Description: as §1

H1755 = assay: Drug treatment on cancer cell lines, cell counting; conditions: BRAF mutated NSCLC
Description: as §1

H1975 = assay: Drug treatment on cancer cell lines, cell counting; conditions: EGFR mutated lung cancer
Description: as §1

H2030 = assay: Drug treatment on cancer cell lines, cell counting; conditions: KRAS mutant NSCLC
Description: as §1

H3255 = assay: Drug treatment on cancer cell lines, cell counting; conditions: EGFR mutated lung cancer
Description: as §1

H358 = assay: Drug treatment on cancer cell lines, cell counting; conditions: KRAS mutant NSCLC
Description: as §1

H446 = assay: Drug treatment on cancer cell lines, cell counting
Description: as §1

H460 = assay: Drug treatment on cancer cell lines, cell counting; conditions: KRAS mutant NSCLC
Description: as §1

H820 = assay: Drug treatment on cancer cell lines, cell counting; conditions: EGFR mutated lung cancer
Description: as §1

HepG2 = assay: Drug treatment on cancer cell lines, cell counting; conditions: hepatoma
Description: as §1

IMR32 = assay: Drug treatment on cancer cell lines, cell counting; conditions: neuroblastoma
Description: as §1

LnCap = assay: Drug treatment on cancer cell lines, cell counting
Description: as §1

MDA-MB-453 = assay: Drug treatment on cancer cell lines, cell counting; conditions: HER2 positive breast cancer
Description: as §1

MDA-MB-468 = assay: Drug treatment on cancer cell lines, cell counting
Description: as §1

PC3 = assay: Drug treatment on cancer cell lines, cell counting; conditions: PTEN mutant prostate cancer
Description: as §1

PC930201 = assay: Drug treatment on cancer cell lines, cell counting; conditions: KRAS mutated pancreatic cancer (PC0201)
Description: as §1

PC931019 = assay: Drug treatment on cancer cell lines, cell counting
Description: as §1

PC941102 = assay: Drug treatment on cancer cell lines, cell counting; conditions: KRAS mutated pancreatic cancer (PC1102)
Description: as §1

[2] = day 3, 6 uM HX531, 10 uM PD98059, 100 nM PD0325901

C=C(c1ccc(C(=O)O)cc1)c1cc2c(cc1C)C(C)(C)CCC2(C)C [Bexarotene] was tested, and the cell growth (A549) was “resistant”, the cell growth (CCCL-18) was “promotes KRAS mutant colon cancer cell CCCL-18 growth at low dosages” and the cell growth (DU145) was “suppressed growth”. The cell growth (DU145; listed as bexarotene) was “significantly suppresses”, the cell growth (H1417) was “suppressed growth” and the cell growth (H209) was “suppressed growth”. The cell growth (H2228) was “suppressed growth”, the cell growth (H2228; listed as bexarotene) was “significantly suppresses” and the cell growth (H3122) was “suppressed growth”. For the same compound, the cell growth (H3122; listed as bexarotene) was “significantly suppresses”, the cell growth (HCT116) was “does not show inhibition; also recorded: slightly promotes the growth; also recorded: slightly promotes KRAS mutant colon cancer cell growth at low dosages; also recorded: did not have good effects” and the cell growth (HELA) was “suppressed growth”. For the same compound, the cell growth (HELA; listed as bexarotene) was “significantly suppresses”, the cell growth (M21) was “suppressed growth” and the cell growth (M21; listed as bexarotene) was “significantly suppresses”. The cell growth (MCF7) was “suppressed growth”, the cell growth (MCF7; listed as bexarotene) was “significantly suppresses” and the cell growth (NCI-H1299) was “did not have good effects”. For the same compound, the cell growth (OCM1) was “suppressed growth”, the cell growth (OCM1; listed as bexarotene) was “significantly suppresses” and the cell growth (SKN-BE(2)) was “suppressed growth”. For the same compound, the cell growth (SKN-BE(2); listed as bexarotene) was “significantly suppresses”, the cell growth (Saos2) was “suppressed growth” and the cell growth (Saos2; listed as bexarotene) was “significantly suppresses”. The cell growth (U2OS) was “did not have good effects”, the retinoblastoma cell growth [1] was “suppressed retinoblastoma cell growth” and the retinoblastoma cell growth ([1]; listed as bexarotene) was “inhibition of RB1 mutant retinoblastoma growth; also recorded: suppressed retinoblastoma cell growth”.

In the case of CN1c2ccc([N+](=O)[O-])cc2N=C(c2ccc(C(=O)O)cc2)c2cc3c(cc21)C(C)(C)CCC3(C)C [HX531], the cell growth (A549) is reported as “inhibition; also recorded: sensitive”, the “growth inhibition, single agent” value (A549; [2]) is reported as “significant growth inhibition” and the cell growth (C918) is reported as “growth inhibition is observed”. The cell growth (CCCL-18) was “inhibition; also recorded: suppresses KRAS mutant colon cancer CCCL-18 cell growth”, the cell growth (CCCL13) was “inhibition” and the cell growth (DU145) was “growth inhibition is observed”. For the same compound, the cell growth (H1650) was “inhibition; also recorded: sensitive”, the cell growth (H1755) was “growth inhibition is observed” and the cell growth (H1975) was “inhibition; also recorded: sensitive”. The cell growth (H2030) was “inhibition”, the cell growth (H209) was “growth inhibition is observed” and the cell growth (H3255) was “inhibition; also recorded: sensitive”. For the same compound, the cell growth (H358) was “inhibition”, the “sensitivity of cell lines to treatment” value (H446; HX531 6 uM (FIG. 22)) was “sensitive” and the cell growth (H446; SCLC) was “inhibition”. The cell growth (H460) was “inhibition”, the cell growth (H820) was “inhibition; also recorded: sensitive” and the cell growth (HCT116) was “inhibition; also recorded: dose-dependent; also recorded: suppresses KRAS mutant colon cancer cell growth”. The “growth inhibition, single agent” value (HCT116; [2]) was “significant growth inhibition”, the cell growth (HepG2) was “growth inhibition is observed” and the cell growth (IMR32) was “growth inhibition is observed”. The “sensitivity of cell lines to treatment” value (LnCap; HX531 6 uM (FIG. 22)) was “sensitive”, the cell growth (LnCap; PTEN mutant prostate cancer) was “inhibition” and the cell growth (M21) was “growth inhibition is observed”. For the same compound, the cell growth (MDA-MB-453) was “growth inhibition is observed”, the “sensitivity of cell lines to treatment” value (MDA-MB-468; HX531 6 uM (FIG. 22)) was “sensitive” and the cell growth (MDA-MB-468; PTEN mutant breast cancer) was “inhibition”. For the same compound, the cell growth (NCI-H1299) was “growth inhibition is observed”, the cell growth (PC3) was “inhibition; also recorded: sensitive” and the cell growth (PC930201) was “inhibition; also recorded: sensitive”. For the same compound, the cell growth (PC931019; KRAS mutated pancreatic cancer (PC1019)) was “inhibition; also recorded: sensitive”, the “growth inhibition, single agent” value (PC931019; day 9, 6 uM HX531, 10 uM PD98059, 100 nM PD0325901) was “growth inhibition” and the cell growth (PC941102) was “inhibition; also recorded: sensitive”. For the same compound, the “sensitivity of cell lines to treatment” value (Saos2; HX531 6 uM (FIG. 22)) was “not sensitive”, the cell growth (U2OS) was “growth inhibition is observed” and the “sensitivity of cell lines to treatment” value ([1]; HX531 6 uM (FIG. 22)) was “not sensitive”. For the same compound, the retinoblastoma cell growth [1] was “promoted retinoblastoma cell growth at low dosages”.
